Z-SCORE data for 64 compounds are collected here from publication PMC5653977 (EMBO Molecular Medicine, 2017).

Structures can show the parent of a compound that is named as a salt.

One assay relates to NRG1-ERBB4 signaling. Kind of assay: Nrg1-ERBB4-PIK3R1 split TEV co-culture compound screen of the NIH Clinical Collection. In kind it is cell-based, human.
Details: not given
The compound `Oc1ccc2c3c1O[C@H]1[C@@H](O)CC[C@@]4(O)[C@@H](C2)N(CC2CCC2)CC[C@]314` [Nalbuphine] came in with a Z-SCORE of -1.86.

The assay is the same for the next values; noted with them: NIH Clinical Collection NCC-003 raw data; compounds ranked by Z-score; 'flagged' given instead of a Z-score.
`CC(=O)O[C@@]12CO[C@@H]1C[C@H](O)[C@@]1(C)C(=O)[C@H](O)C3=C(C)[C@@H](OC(=O)[C@H](O)[C@@H](NC(=O)OC(C)(C)C)c4ccccc4)C[C@@](O)([C@@H](OC(=O)c4ccccc4)[C@H]21)C3(C)C` [DOCETAXEL] yielded a Z-SCORE of -1.13.
In the case of `C=CCc1ccc(O)c(-c2ccc(O)c(CC=C)c2)c1` [HONOKIOL], the Z-SCORE entry is on record as “flagged”.
`Nc1nc(N)nc(-c2cc(Cl)ccc2Cl)n1` [IRSOGLADINE MALEATE] registered a Z-SCORE of -1.2.
The same measure, in the same setting: in the case of `CCC(COC(=O)c1cc(OC)c(OC)c(OC)c1)(c1ccccc1)N(C)C.O=C(O)/C=C\C(=O)O` (stereo not shown) [TRIMEBUTINE MALEATE] it was -1.14; in that of `O=C1CCc2ccc(OCCCCN3CCN(c4cccc(Cl)c4Cl)CC3)cc2N1` [ARIPIPRAZOLE], -1.84; in that of `CCC(C)n1ncn(-c2ccc(N3CCN(c4ccc(OCC5COC(Cn6cncn6)(c6ccc(Cl)cc6Cl)O5)cc4)CC3)cc2)c1=O` (stereo not shown) [Itraconazole, reference compound], -3.6.
The same measure, in the same setting: in the case of `CC1=C(C(=O)O)N2C(=O)[C@@H](NC(=O)[C@H](N)c3ccccc3)[C@H]2SC1` [Cephalexin monohydrate] it was -1.51.
Same read-out and setting: in the case of `CC(C)CC(N(C)C)C1(c2ccc(Cl)cc2)CCC1.Cl` (stereo not shown) [SIBUTRAMINE HCl] it was -1.35; in that of `Br.COc1ccc2c(c1)[C@@]13CCCC[C@H]1[C@@H](C2)N(C)CC3`, -1.1.

The assay is the same for the next values; noted with them: compound screen of the NIH Clinical Collection, sheet raw data NCC-003; compounds ranked by Z-score.
`CNNCc1ccc(C(=O)NC(C)C)cc1` [PROCARBAZINE HYDROCHLORIDE] had a Z-SCORE of 0.52.
In the case of `CCN1CC(CCN2CCOCC2)C(c2ccccc2)(c2ccccc2)C1=O.Cl` (stereo not shown) [DOXAPRAM HYDROCHLORIDE], the Z-SCORE is -0.46.
Same read-out and setting: in the case of `Cc1ncc([N+](=O)[O-])n1CCO` [METRONIDAZOLE] it was -0.28; in that of `CC(=O)SCC(Cc1ccccc1)C(=O)NCC(=O)OCc1ccccc1` (stereo not shown), 0.
Still for that read-out and setting: in the case of `Cc1nc2ccccn2c(=O)c1CCN1CCC(C(=O)c2ccc(F)cc2)CC1` [PIRENPERONE] it was 1.82; in that of `Oc1cc2c(cc1O)[C@@H]1c3ccccc3CN[C@H]1CC2`, 0.99; in that of `CC(O)CO.N[C@@H](C(=O)N[C@@H]1C(=O)N2C(C(=O)O)=C(CSc3cn[nH]n3)CS[C@H]12)c1ccc(O)cc1` [CEFATRIZINE PROPYLENE GLYCOL], 0.04.
Compound `CN(C)CCOC(c1ccccc1)c1ccccc1` [DIPHENHYDRAMINE HYDROCHLORIDE] displayed a Z-SCORE of 1.01.
The same measure, in the same setting: as for `CN(C)CCc1c[nH]c2ccc(C[C@H]3COC(=O)N3)cc12` [Zolmitriptan], the figure is 0.57; as for `C[C@]12CCC(=O)C=C1CC[C@@H]1[C@@H]2CC[C@@]2(C)[C@H]1CC[C@]2(C)O` [Methyltestosterone], -0.41; as for `C[C@]12CC[C@@H]3c4ccc(O)cc4CC[C@H]3[C@@H]1CC[C@@H]2O` [BETA-ESTRADIOL], 0.81.
On the same count and under the same terms, in the case of `Oc1ccc(C2CNCCc3c2cc(O)c(O)c3Cl)cc1` (stereo not shown) [FENOLDOPAM MESYLATE] it was -0.37; in that of `Nc1nc(=O)[nH]cc1F` [5-FLUOROCYTOSINE], -0.59; in that of `COc1cc2nc(N3CCN(C(=O)C4CCCO4)CC3)nc(N)c2cc1OC` (stereo not shown) [Terazosin, reference compound], -0.8.
`O=C1CN2Cc3c(ccc(Cl)c3Cl)N=C2N1` [ANAGRELIDE HCl]: the Z-SCORE is reported as -0.48.
The same measure, in the same setting: in the case of `CN1CC[C@]2(c3cccc(O)c3)Cc3nc4ccccc4cc3C[C@H]2C1` [SB 205607] it was 0.19.
Still for that read-out and setting: as for `CC1CNc2c(cccc2S(=O)(=O)N[C@@H](CCCNC(=N)N)C(=O)N2CC[C@@H](C)C[C@@H]2C(=O)O)C1` (stereo partly shown) [ARGATROBAN], the figure is -0.29; as for `O=C(O)CCNC(=O)c1ccc(/N=N/c2ccc(O)c(C(=O)O)c2)cc1` [BALSALAZIDE], 0.84.
Same read-out and setting: in the case of `CN1CC(=O)N2[C@H](c3ccc4c(c3)OCO4)c3[nH]c4ccccc4c3C[C@@H]2C1=O` it was 0.97; in that of `CCCCc1oc2ccccc2c1C(=O)c1cc(I)c(OCCN(CC)CC)c(I)c1` [AMIODARONE HYDROCHLORIDE], -0.19.
`COc1ccc2c3c1O[C@H]1C[C@@H](O)C=C[C@@]31CCN(C)C2` [Galanthamine] returned a Z-SCORE of 1.13.
Same read-out and setting: in the case of `CN1CCCC(n2nc(Cc3ccc(Cl)cc3)c3ccccc3c2=O)CC1` (stereo not shown) [AZELASTINE HCl] it was -0.68; in that of `O=[N+]([O-])c1cccc2cn[nH]c12` [7-NITROINDAZOLE], 0.29; in that of `CN1C2CCCC1CC(NC(=O)c1nn(C)c3ccccc13)C2` (stereo not shown) [GRANISETRON HCl], 0.21.
On the same count and under the same terms, as for `CN[C@H]1CC[C@@H](c2ccc(Cl)c(Cl)c2)c2ccccc21` [Sertraline, reference compound], the figure is -0.03; as for `C[C@@H]1CN(CCCn2c3ccccc3c3ccccc32)C[C@H](C)N1` [Rimcazole], 0.6; as for `CCc1ccc(CCOc2ccc(CC3SC(=O)NC3=O)cc2)nc1` (stereo not shown) [PIOGLITAZONE HCl], -0.64.
On the same count and under the same terms, as for `CN1CCN(C2=Nc3cc(F)ccc3Cc3ccccc32)CC1` [Fluperlapine], the figure is -0.5.
Consider `CN(C)CC/C=C1/c2ccccc2COc2ccc(CC(=O)O)cc21` [OLOPATADINE HCl], for which the Z-SCORE is recorded as 0.55.
Regarding `COc1ccccc1N1CCN(CCCNc2cc(=O)n(C)c(=O)n2C)CC1` [URAPIDIL HYDROCHLORIDE], the Z-SCORE worked out at 0.51.
The same measure, in the same setting: as for `C[N+]1(C)CCN(c2ccccc2)CC1.[I-]` [1,1-DIMETHYL-4-PHENYLPIPERAZINIUM IODIDE], the figure is 2.45; as for `CNCCCC12CCC(c3ccccc31)c1ccccc12.Cl` [Maprotilline HCl], 1.18; as for `CCC(=O)O[C@]1(C(=O)SCF)[C@H](C)C[C@H]2[C@@H]3C[C@H](F)C4=CC(=O)C=C[C@]4(C)[C@@]3(F)[C@@H](O)C[C@@]21C` [FLUTICASONE PROPIONATE], -0.31.

Still in this assay, the particulars now being: compounds at 10 μM, 24 h; PC12 split TEV assay cells co-cultured with Nrg1-expressing PC12 cells; analysed with cellHTS2.
`CCN1CCN(C(=O)N[C@@H](C(=O)N[C@@H]2C(=O)N3[C@@H]2SC(C)(C)[C@@H]3C(=O)O)c2ccccc2)C(=O)C1=O` [PIPERACILLIN SODIUM SALT, reference compound] showed a Z-SCORE of 0.05.
As to `CN(C)[C@@H]1C(O)=C(C(N)=O)C(=O)[C@@]2(O)C(O)=C3C(=O)c4c(O)ccc(Cl)c4[C@@H](O)[C@H]3C[C@@H]12` [Demeclocycline, reference compound], the Z-SCORE is 0.1.
For the compound `Nc1ncn([C@@H]2O[C@H](CO)[C@@H](O)[C@H]2O)c(=O)n1` [5-Azacytidine, reference compound], the Z-SCORE result is given as “flagged”.
On the same count and under the same terms, as for `CCCNC(=O)NS(=O)(=O)c1ccc(Cl)cc1` [Chlorpropamide, reference compound], the figure is -0.07; as for `COc1cc2nc(N3CCN(C(=O)C4CCCO4)CC3)nc(N)c2cc1OC` (stereo not shown) [Terazosin, reference compound], -1.96; as for `CCCCC(=O)O[C@]1(C(=O)CO)CC[C@H]2[C@@H]3CCC4=CC(=O)CC[C@]4(C)[C@H]3[C@@H](O)C[C@@]21C` [Westcort, reference compound], -0.71.
Still for that read-out and setting: in the case of `CC(C)(C)NCC(O)c1cc(O)cc(O)c1` (stereo not shown) [Terbutaline Sulfate, reference compound] it was 0.15; in that of `Cn1cc[nH]c1=S` [Methimazole, reference compound], 3; in that of `NS(=O)(=O)c1cc2c(cc1Cl)NCNS2(=O)=O` [Hydrochlorothiazide, reference compound], -0.03.
Same read-out and setting: as for `Cc1onc(-c2ccccc2)c1C(=O)N[C@@H]1C(=O)N2[C@@H]1SC(C)(C)[C@@H]2C(=O)[O-].O.[Na+]` [Micropenin, reference compound], the figure is 0.25; as for `CO[C@H]1/C=C/O[C@@]2(C)Oc3c(C)c(O)c4c(O)c(c(/C=N/N5CCN(C)CC5)c(O)c4c3C2=O)NC(=O)/C(C)=C\C=C\[C@H](C)[C@H](O)[C@@H](C)[C@@H](O)[C@@H](C)[C@H](OC(C)=O)[C@@H]1C` [RIFAMPICIN, reference compound], -0.22; as for `COc1cc(NC(C)CCCN)c2ncccc2c1` (stereo not shown) [Primaquine Diphosphate, reference compound], -0.7.
For `CN[C@H]1CC[C@@H](c2ccc(Cl)c(Cl)c2)c2ccccc21` [Sertraline, reference compound], the Z-SCORE entry is recorded as “flagged”.
Same read-out and setting: as for `CCC(C)n1ncn(-c2ccc(N3CCN(c4ccc(OCC5COC(Cn6cncn6)(c6ccc(Cl)cc6Cl)O5)cc4)CC3)cc2)c1=O` (stereo not shown) [Itraconazole, reference compound], the figure is -3.6; as for `OC(CCN1CCCCC1)(c1ccccc1)C1CCCCC1` (stereo not shown) [Artane, reference compound], -0.35.
On the same count and under the same terms, as for `COc1ccc(OC)c(C(O)CNC(=O)CN)c1` (stereo not shown) [Pro-Amatine, reference compound], the figure is 0.01; as for `Cc1nccn1CC1CCc2c(c3ccccc3n2C)C1=O` (stereo not shown) [Ondansetron, reference compound], 0.12.
The same measure, in the same setting: in the case of `O=C(O)c1cc(=O)c2c(OCC(O)COc3cccc4oc(C(=O)O)cc(=O)c34)cccc2o1` [Cromolyn Sodium, reference compound] it was 1.88.
On to `CNC(=C[N+](=O)[O-])NCCSCc1ccc(CN(C)C)o1` [Ranitidine hydrochloride, reference compound], for which the Z-SCORE was -0.51.
Still for that read-out and setting: in the case of `CC1(C)S[C@@H]2[C@H](NC(=O)[C@H](N)c3ccccc3)C(=O)N2[C@H]1C(=O)O` [Ampicillin Sodium, reference compound] it was -1.31.
Same read-out and setting: as for `c1ccc2c(CC3=NCCN3)cccc2c1` [Albalon, reference compound], the figure is -0.27; as for `O=C1NC(=O)C(c2ccccc2)(c2ccccc2)N1` [Dilantin, reference compound], 0.95.
Still for that read-out and setting: in the case of `Nc1nc(=O)c2nc(CNc3ccc(C(=O)N[C@@H](CCC(=O)O)C(=O)O)cc3)cnc2[nH]1` [Folic acid, reference compound] it was 0; in that of `S=c1[nH]cnc2nc[nH]c12` [Mercaptopurine, reference compound], 0.
